From paper PMC11357161, “Phytochemical Analysis, Biological Activities, and Docking of Phenolics from Shoot Cultures of Hypericum perforatum L. Transformed by Agrobacterium rhizogenes” (Molecules, 2024) come the findings set out here.

Holding throughout (type): biochemical
One test addresses α-amylase (α-AM) (Aspergillus oryzae, UniProt P0C1B3). Briefly: α-AM inhibitory activity in vitro. To be noted: concentration that inhibits 25% of enzyme activity; mean ± SD, three replicates. Here is the method:
(§1) Shoot methanolic extracts were evaporated in a freeze-dryer (Labconco, Kansas City, MO, USA), and dry extracts were dissolved in 50% dimethyl sulfoxide. […] The protocols for MAO-A, AChE, BChE, TYR, α-AM, α-GL, PL, and CHE inhibitory activities were presented in our previous studies. […] Three replicates were used for all enzyme-inhibitory tests.

Test [1] addresses T1, monoamine oxidase-A (MAO-A) (Homo sapiens, UniProt P21397).
T1 sequence (P21397 1-527): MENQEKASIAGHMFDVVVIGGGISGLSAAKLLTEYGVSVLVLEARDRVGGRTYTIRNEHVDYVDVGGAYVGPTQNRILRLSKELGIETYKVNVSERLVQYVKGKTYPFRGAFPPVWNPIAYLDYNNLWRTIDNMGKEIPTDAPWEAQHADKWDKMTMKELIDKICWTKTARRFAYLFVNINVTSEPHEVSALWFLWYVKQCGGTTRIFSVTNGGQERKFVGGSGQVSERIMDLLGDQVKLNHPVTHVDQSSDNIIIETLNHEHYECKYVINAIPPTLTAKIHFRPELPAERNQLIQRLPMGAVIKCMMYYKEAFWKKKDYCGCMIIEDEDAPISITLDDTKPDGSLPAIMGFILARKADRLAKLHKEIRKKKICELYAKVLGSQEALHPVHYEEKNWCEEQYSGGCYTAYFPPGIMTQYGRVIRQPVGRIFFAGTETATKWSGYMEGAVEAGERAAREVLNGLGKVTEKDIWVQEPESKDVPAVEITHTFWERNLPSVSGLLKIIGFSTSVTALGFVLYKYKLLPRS
Put plainly: MAO-A inhibitory activity in vitro. Here is the method: as §1

In test [2] the target is T2, cholesterol esterase (CHE) (Homo sapiens, UniProt P19835).
T2 sequence (P19835 21-753): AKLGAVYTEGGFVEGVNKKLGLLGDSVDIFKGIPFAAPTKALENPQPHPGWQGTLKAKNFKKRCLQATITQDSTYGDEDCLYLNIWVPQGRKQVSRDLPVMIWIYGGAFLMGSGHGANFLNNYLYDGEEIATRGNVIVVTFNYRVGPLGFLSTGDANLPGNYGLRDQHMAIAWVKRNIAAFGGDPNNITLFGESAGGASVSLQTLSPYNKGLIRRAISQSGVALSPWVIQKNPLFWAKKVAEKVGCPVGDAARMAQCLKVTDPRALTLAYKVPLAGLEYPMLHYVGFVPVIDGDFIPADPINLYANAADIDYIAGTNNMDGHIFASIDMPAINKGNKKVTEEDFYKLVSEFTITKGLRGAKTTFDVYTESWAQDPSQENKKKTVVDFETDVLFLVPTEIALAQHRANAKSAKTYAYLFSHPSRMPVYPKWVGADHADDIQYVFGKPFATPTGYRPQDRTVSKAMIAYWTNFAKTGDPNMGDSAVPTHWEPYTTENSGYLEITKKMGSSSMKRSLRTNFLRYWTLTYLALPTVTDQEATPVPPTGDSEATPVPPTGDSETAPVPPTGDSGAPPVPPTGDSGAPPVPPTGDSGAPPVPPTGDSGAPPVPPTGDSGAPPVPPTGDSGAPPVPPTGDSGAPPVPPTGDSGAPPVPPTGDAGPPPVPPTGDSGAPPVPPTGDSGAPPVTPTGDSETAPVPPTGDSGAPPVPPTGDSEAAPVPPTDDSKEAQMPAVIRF
Put plainly: CHE inhibitory activity in vitro. To be noted: concentration that inhibits 50% of enzyme activity; mean ± SD, three replicates. Here is the method: as §1

pIC50: −log10 of the molar value. Marks after values point to notes of the source that are not given here.

Regarding `C[C@H]1O[C@H](O[C@H]2[C@H](O)[C@@H](O)[C@@H](O[C@H]3[C@H](O)[C@@H](O)C(O)O[C@@H]3CO)O[C@@H]2CO)[C@H](O)[C@@H](O)[C@@H]1N[C@H]1C=C(CO)[C@@H](O)[C@H](O)[C@H]1O` (stereo partly drawn) [Acarbose], the “α-AM (IC25)” value at α-amylase (α-AM) is 6.77 ± 0.76 ^a µg·mL^−1.
`Oc1ccc(Cl)cc1Cl` [DCP, 2,4-dichlorophenol]: the pIC50 in test [1] is 3.65.
`CCC(C)(C)C(=O)O[C@H]1C[C@@H](C)C=C2C=C[C@H](C)[C@H](CC[C@@H]3C[C@@H](O)CC(=O)O3)[C@H]21` [Simvastatin] gave a pIC50 in test [2] of 3.42.

In general, pIC50 refers to the negative decadic logarithm of the IC50, by convention in mol/L. A high value points to a low IC50.
